Measurements reported in patent US20260022142A1, “MACROCYCLIC IMMUNOMODULATORS” (Bristol-Myers Squibb Company, priority 2022, published 2026).
Bridge positions count the residues as written; N and C are the ends. Square brackets hold non-standard residues; d marks the D form. Peptide text beside a SMILES is read from it. * marks the point of attachment. ξ: configuration not given here. Phe(3-CF3) = N[C@@H](Cc1cccc(C(F)(F)F)c1)C(=O)O; Phe(4-COOH) = N[C@@H](Cc1ccc(C(=O)O)cc1)C(=O)O; Bip = N[C@@H](Cc1ccc(-c2ccccc2)cc1)C(=O)O; NH(CH2)14COOH = O=C(O)CCCCCCCCCCCCCCN*; Phe(3-Me) = Cc1cccc(C[C@H](N)C(=O)O)c1; NH(CH2)12COOH = O=C(O)CCCCCCCCCCCCN*; Val(3-OH) = CC(C)(O)[C@H](N)C(=O)O; hArg = N=C(N)NCCCC[C@H](N)C(=O)O; 4Pal = N[C@@H](Cc1ccncc1)C(=O)O; Cha = N[C@@H](CC1CCCCC1)C(=O)O; Cit = NC(=O)NCCC[C@H](N)C(=O)O; Thr(3ξ) = CC(O)[C@H](N)C(=O)O; PEG4 = NCCOCCOCCOCCOCCC(=O)O; Carboxymethyl = O=C(O)C*; Orn = NCCC[C@H](N)C(=O)O; Aun = NCCCCCCCCCCC(=O)O; Dab = NCC[C@H](N)C(=O)O; Dap = NC[C@H](N)C(=O)O; AEEA = NCCOCCOCC(=O)O

Biological target: T1, PD-1/PD-L1 interaction (PE-labeled human PD-L1-Ig binding to Jurkat cell line over-expressing human PD-1) (Homo sapiens, UniProt Q15116)
T1 construct: expressed in transfected cells; host or cells: Jurkat
Assay: Jurkat-PD-1 Cell Binding High-Content Screening Assay (CBA)
Format: cell-based
Settings: Jurkat cell line over-expressing human PD-1; PE-labeled PD-L1-Ig 20 nM final; read-out: Jurkat hPD1-PDL1 IC50
How it was run: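 Jurkat cells stably over-expressing human PD-1 were seeded in DMEM with 10% fetal calf serum and pre-incubated with compound for 2 h at 37° C. PE-labeled human PD-L1-Ig was then added at 20 nM final for 1 hour, after which cells were fixed with paraformaldehyde, Hoechst-stained and imaged by high-content microscopy.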

T1 sequence (Q15116 25-288): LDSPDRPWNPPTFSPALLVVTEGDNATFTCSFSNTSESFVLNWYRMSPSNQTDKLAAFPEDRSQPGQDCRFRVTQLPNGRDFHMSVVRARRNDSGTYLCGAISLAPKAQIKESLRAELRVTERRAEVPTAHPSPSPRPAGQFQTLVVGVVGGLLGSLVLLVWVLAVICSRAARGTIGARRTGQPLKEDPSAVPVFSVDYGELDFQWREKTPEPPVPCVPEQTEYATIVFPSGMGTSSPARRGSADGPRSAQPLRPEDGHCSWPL

`CC(C)C[C@H]1NC(=O)[C@H](CCCN)NC(=O)[C@H](Cc2ccc(C(=O)O)cc2)NC(=O)[C@H](Cc2ccc(-c3ccccc3)cc2)NC(=O)[C@H](Cc2ccc(C(=O)O)cc2)NC(=O)[C@H](Cc2cccc(C(F)(F)F)c2)NC(=O)[C@H](CC(=O)O)NC(=O)[C@H](Cc2ccc(OCC(=O)O)cc2)NC(=O)[C@H](C)NC(=O)CSC[C@@H](C(=O)N[C@@H](CCN)C(=O)NCCOCCOCCOCCOCCC(=O)NCCCCCCCCCCCCC(=O)O)NC(=O)[C@H](Cc2c[nH]cn2)NC(=O)[C@H](C(C)(C)O)NC(=O)[C@H](CC2CCCCC2)NC(=O)[C@H](CCN)NC1=O` [Compound 2953] ({CH2CO}-AY(Carboxymethyl)D[Phe(3-CF3)][Phe(4-COOH)][Bip][Phe(4-COOH)][Orn][dL][Dab][Cha][Val(3-OH)]HC[Dab][PEG4]-{NH(CH2)12COOH}; thioether N-14) gave an IC50 of 49.3 nM.

Compound `CC(C)C[C@H]1NC(=O)[C@H](CCCN)NC(=O)[C@H](Cc2ccc(C(=O)O)cc2)NC(=O)[C@H](Cc2ccc(-c3ccccc3)cc2)NC(=O)[C@H](Cc2ccc(C(=O)O)cc2)NC(=O)[C@H](Cc2cccc(C(F)(F)F)c2)NC(=O)[C@H](CC(=O)O)NC(=O)[C@H](Cc2ccc(OCC(=O)O)cc2)NC(=O)[C@H](C)NC(=O)CSC[C@@H](C(=O)N[C@@H](CCN)C(=O)NCCOCCOCCOCCOCCC(=O)NCCCCCCCCCCCCCCC(=O)O)NC(=O)[C@H](Cc2c[nH]cn2)NC(=O)[C@H](C(C)(C)O)NC(=O)[C@H](CC2CCCCC2)NC(=O)[C@H](CCN)NC1=O` [Compound 2954] ({CH2CO}-AY(Carboxymethyl)D[Phe(3-CF3)][Phe(4-COOH)][Bip][Phe(4-COOH)][Orn][dL][Dab][Cha][Val(3-OH)]HC[Dab][PEG4]-{NH(CH2)14COOH}; thioether N-14) has an IC50 of 264 nM.

`CC(C)C[C@@H]1NC(=O)[C@H](Cc2c[nH]c3ccccc23)NC(=O)[C@H](CC(=O)O)NC(=O)[C@H](Cc2ccc(OCC(=O)O)cc2)NC(=O)[C@H](CCCCNC(=N)N)NC(=O)CSC[C@@H](C(=O)N[C@@H](C)C(=O)NCCOCCOCC(=O)N[C@@H](CCCCN)C(=O)NCCOCCOCC(=O)NCCCCCCCCCCCCCCC(=O)O)NC(=O)[C@H](CO)NC(=O)[C@H](C(C)C)NC(=O)[C@H](CC2CCCCC2)NC(=O)[C@H](CCN)NC(=O)[C@@H](CC(C)C)NC(=O)[C@H](CCCN)NC(=O)[C@H](C(C)C)NC(=O)[C@H](Cc2ccc(-c3ccccc3)cc2)NC1=O` [Compound 3006] ({CH2CO}-[hArg]Y(Carboxymethyl)DWL[Bip]V[Orn][dL][Dab][Cha]VSCA[AEEA]K[AEEA]-{NH(CH2)14COOH}; thioether N-14) gave an IC50 of 129 nM.

For `Cc1cccc(C[C@@H]2NC(=O)[C@H](CC(=O)O)NC(=O)[C@H](Cc3ccc(OCC(=O)O)cc3)NC(=O)[C@H](CN)NC(=O)CSC[C@@H](C(=O)N[C@@H](C)C(=O)N[C@@H](CCCCN)C(=O)NCC(=O)NCCCCCCCCCCCCCCC(=O)O)NC(=O)[C@H](C(C)O)NC(=O)[C@H](C(C)C)NC(=O)[C@H](CC3CCCCC3)NC(=O)[C@H](CCN)NC(=O)[C@@H](CC(C)C)NC(=O)[C@H](CCCN)NC(=O)[C@H](CCCNC(N)=O)NC(=O)[C@H](Cc3ccc(-c4ccccc4)cc3)NC(=O)[C@H](C(C)C)NC2=O)c1` (stereo partly drawn) [Compound 3007] ({CH2CO}-[Dap]Y(Carboxymethyl)D[Phe(3-Me)]V[Bip][Cit][Orn][dL][Dab][Cha]V[Thr(3ξ)]CAKG-{NH(CH2)14COOH}; thioether N-14), the IC50 was 180 nM.

`CC(C)C[C@H]1NC(=O)[C@H](CCCN)NC(=O)[C@H](CCN)NC(=O)[C@H](Cc2ccc(-c3ccccc3)cc2)NC(=O)[C@H](C(C)C)NC(=O)[C@H](Cc2c[nH]c3ccccc23)NC(=O)[C@H](CC(=O)O)NC(=O)[C@H](Cc2ccc(OCC(=O)O)cc2)NC(=O)[C@H](CN)NC(=O)CSC[C@@H](C(=O)N[C@@H](CC(N)=O)C(=O)NCC(=O)NCCCCCCCCCCCCCCC(=O)O)NC(=O)[C@H](CO)NC(=O)[C@H](C(C)C)NC(=O)[C@H](CC2CCCCC2)NC(=O)[C@H](CCN)NC1=O` [Compound 3008] ({CH2CO}-[Dap]Y(Carboxymethyl)DWV[Bip][Dab][Orn][dL][Dab][Cha]VSCNG-{NH(CH2)14COOH}; thioether N-14) gave an IC50 of 552 nM.

In the case of `CC(C)C[C@H]1NC(=O)[C@H](CCCN)NC(=O)[C@H](C(C)C)NC(=O)[C@H](Cc2ccc(-c3ccccc3)cc2)NC(=O)[C@H](C(C)C)NC(=O)[C@H](Cc2c[nH]c3ccccc23)NC(=O)[C@H](CC(=O)O)NC(=O)[C@H](Cc2ccc(C(=O)O)cc2)NC(=O)[C@H](CCCCNC(=N)N)NC(=O)CSC[C@@H](C(=O)N[C@@H](C)C(=O)N[C@@H](CCCCN)C(=O)NCCCCCCCCCCCCCCC(=O)O)NC(=O)[C@H](C(C)O)NC(=O)[C@H](C(C)C)NC(=O)[C@H](CC2CCCCC2)NC(=O)[C@H](CCN)NC1=O` (stereo partly drawn) [Compound 3016] ({CH2CO}-[hArg][Phe(4-COOH)]DWV[Bip]V[Orn][dL][Dab][Cha]V[Thr(3ξ)]CAK-{NH(CH2)14COOH}; thioether N-14), the IC50 is reported as 94.5 nM.

Work on `CC(C)C[C@@H]1NC(=O)[C@H](Cc2c[nH]c3ccccc23)NC(=O)[C@H](CC(=O)O)NC(=O)[C@H](Cc2ccc(C(=O)O)cc2)NC(=O)[C@H](CCCCNC(=N)N)NC(=O)CSC[C@@H](C(=O)N[C@@H](C)C(=O)N[C@@H](CCN)C(=O)NCCCCCCCCCCCCCCC(=O)O)NC(=O)[C@H](CO)NC(=O)[C@H](C(C)C)NC(=O)[C@H](CC2CCCCC2)NC(=O)[C@H](Cc2c[nH]cn2)NC(=O)[C@@H](CC(C)C)NC(=O)[C@H](CCCN)NC(=O)[C@H](C(C)C)NC(=O)[C@H](Cc2ccc(-c3ccccc3)cc2)NC1=O` [Compound 3019] ({CH2CO}-[hArg][Phe(4-COOH)]DWL[Bip]V[Orn][dL]H[Cha]VSCA[Dab]-{NH(CH2)14COOH}; thioether N-14) yielded an IC50 of 336 nM.

`Cc1cccc(C[C@@H]2NC(=O)[C@H](CC(=O)O)NC(=O)[C@H](Cc3ccc(OCC(=O)O)cc3)NC(=O)[C@H](C(C)O)NC(=O)CSC[C@@H](C(=O)N[C@@H](C)C(=O)N[C@@H](CCN)C(=O)NCCCCCCCCCCC(=O)O)NC(=O)[C@H](C(C)O)NC(=O)[C@H](C(C)C)NC(=O)[C@H](CC3CCCCC3)NC(=O)[C@H](CCN)NC(=O)[C@@H](CC(C)C)NC(=O)[C@H](CCCN)NC(=O)[C@H](C(C)C)NC(=O)[C@H](Cc3ccc(-c4ccccc4)cc3)NC(=O)[C@H](C(C)C)NC2=O)c1` (stereo partly drawn) [Compound 3020] ({CH2CO}-[Thr(3ξ)]Y(Carboxymethyl)D[Phe(3-Me)]V[Bip]V[Orn][dL][Dab][Cha]V[Thr(3ξ)]CA[Dab][Aun]-OH; thioether N-14) gave an IC50 of 12 nM.

`CC(C)C[C@H]1NC(=O)[C@H](CCCN)NC(=O)[C@H](C(C)C)NC(=O)[C@H](Cc2ccc(-c3ccccc3)cc2)NC(=O)[C@H](C(C)C)NC(=O)[C@H](Cc2c[nH]c3ccccc23)NC(=O)[C@H](CC(=O)O)NC(=O)[C@H](Cc2ccc(C(=O)O)cc2)NC(=O)[C@H](C(C)O)NC(=O)CSC[C@@H](C(=O)N[C@@H](C)C(=O)N[C@@H](CCCCN)C(=O)NCCCCCCCCCCCCCCC(=O)O)NC(=O)[C@H](C(C)O)NC(=O)[C@H](C(C)C)NC(=O)[C@H](CC2CCCCC2)NC(=O)[C@H](CCN)NC1=O` (stereo partly drawn) [Compound 3021] ({CH2CO}-[Thr(3ξ)][Phe(4-COOH)]DWV[Bip]V[Orn][dL][Dab][Cha]V[Thr(3ξ)]CAK-{NH(CH2)14COOH}; thioether N-14) gave an IC50 of 130 nM.

`CC(C)C[C@H]1NC(=O)[C@H](CCCN)NC(=O)[C@H](C(C)C)NC(=O)[C@H](Cc2ccc(-c3ccccc3)cc2)NC(=O)[C@H](C(C)C)NC(=O)[C@H](Cc2c[nH]c3ccccc23)NC(=O)[C@H](CC(=O)O)NC(=O)[C@H](Cc2ccc(C(=O)O)cc2)NC(=O)[C@H](C(C)O)NC(=O)CSC[C@@H](C(=O)N[C@@H](C)C(=O)NCCOCCOCC(=O)N[C@@H](CCN)C(=O)NCCCCCCCCCCC(=O)O)NC(=O)[C@H](C(C)O)NC(=O)[C@H](C(C)C)NC(=O)[C@H](CC2CCCCC2)NC(=O)[C@H](CCN)NC1=O` (stereo partly drawn) [Compound 3022] ({CH2CO}-[Thr(3ξ)][Phe(4-COOH)]DWV[Bip]V[Orn][dL][Dab][Cha]V[Thr(3ξ)]CA[AEEA][Dab][Aun]-OH; thioether N-14) gave an IC50 of 7.3 nM.

In the case of `CC(C)C[C@@H]1NC(=O)[C@H](Cc2c[nH]c3ccccc23)NC(=O)[C@H](CC(=O)O)NC(=O)[C@H](Cc2ccc(C(=O)O)cc2)NC(=O)[C@H](C(C)O)NC(=O)CSC[C@@H](C(=O)N[C@@H](CC(N)=O)C(=O)N[C@@H](CCN)C(=O)NCCCCCCCCCCCCCCC(=O)O)NC(=O)[C@H](CO)NC(=O)[C@H](C(C)C)NC(=O)[C@H](CC2CCCCC2)NC(=O)[C@H](CCN)NC(=O)[C@@H](CC(C)C)NC(=O)[C@H](CCCN)NC(=O)[C@H](C(C)C)NC(=O)[C@H](Cc2ccc(-c3ccccc3)cc2)NC1=O` (stereo partly drawn) [Compound 3023] ({CH2CO}-[Thr(3ξ)][Phe(4-COOH)]DWL[Bip]V[Orn][dL][Dab][Cha]VSCN[Dab]-{NH(CH2)14COOH}; thioether N-14), the IC50 is reported as 184 nM.

For `CC(C)C[C@@H]1NC(=O)[C@H](Cc2c[nH]c3ccccc23)NC(=O)[C@H](CC(=O)O)NC(=O)[C@H](Cc2ccc(C(=O)O)cc2)NC(=O)[C@H](C(C)O)NC(=O)CSC[C@@H](C(=O)N[C@@H](C)C(=O)N[C@@H](CCN)C(=O)NCCCCCCCCCCCCCCC(=O)O)NC(=O)[C@H](CO)NC(=O)[C@H](C(C)C)NC(=O)[C@H](CC2CCCCC2)NC(=O)[C@H](Cc2c[nH]cn2)NC(=O)[C@@H](CC(C)C)NC(=O)[C@H](CCCN)NC(=O)[C@H](C(C)C)NC(=O)[C@H](Cc2ccc(-c3ccccc3)cc2)NC1=O` (stereo partly drawn) [Compound 3024] ({CH2CO}-[Thr(3ξ)][Phe(4-COOH)]DWL[Bip]V[Orn][dL]H[Cha]VSCA[Dab]-{NH(CH2)14COOH}; thioether N-14), the IC50 was 891 nM.

For `CC(C)C[C@H]1NC(=O)[C@H](CCCN)NC(=O)[C@H](CCC(=O)O)NC(=O)[C@H](Cc2ccc(-c3ccccc3)cc2)NC(=O)[C@H](C(C)C)NC(=O)[C@H](Cc2c[nH]c3ccccc23)NC(=O)[C@H](CC(=O)O)NC(=O)[C@H](Cc2ccncc2)NC(=O)[C@H](C(C)O)NC(=O)CSC[C@@H](C(=O)N[C@@H](C)C(=O)NCCOCCOCC(=O)N[C@@H](CCCCN)C(=O)NCCCCCCCCCCCCCCC(=O)O)NC(=O)[C@H](CO)NC(=O)[C@H](C(C)C)NC(=O)[C@H](CC2CCCCC2)NC(=O)[C@H](CCN)NC1=O` (stereo partly drawn) [Compound 3025] ({CH2CO}-[Thr(3ξ)][4Pal]DWV[Bip]E[Orn][dL][Dab][Cha]VSCA[AEEA]K-{NH(CH2)14COOH}; thioether N-14), the IC50 was 80.5 nM.
